Where two headings read alike, the source gives them in different places.
Columns and labels:
juvenile S. mansoni = assay: In vitro drug sensitivity assay on juvenile S. mansoni; format: cell-based, Schistosoma mansoni; details: 72 h incubation, 37 °C, 5% CO2
Method: Juvenile worms were gained through cultivation of NTS as previously described. 10 In short, NTS were obtained as described above, then directly after the mechanical transformation process the newly transformed schistosomula were placed in a special culturing medium. The culture medium consists of Panserin 401, w: L-Glutamine, serum free all-round medium (Pan Biotech, Aidenbach, Germany) supplemented with 20 % human serum and 500 U/mL penicillin, […] streptomycin (LuBioScience, Switzerland). 96-well transparent polystyrene flat bottom plates were used for the in vitro growth procedure, with 40 to 60 NTS per well in 100 µL culture medium. The bordering wells of the plate were filled solely with medium to counteract evaporation and to keep the humidity as steady as possible. The plates were incubated for 21 days at 5 % CO2 and at 37 °C, with regular medium changes every 3 to 4 days. After the 21 days culturing period, the schistosomulae developed into juveniles. For the drug sensitivity assay, juvenile worms were incubated over 72 h (5 % CO 2 and 37 °C) with the test compound in the same medium, as used for the culturing process. In a 96-well plate, 250 µL medium containing the test compound and six juvenile worms, ideally of both sexes were placed in each well. All compounds were tested twice independently at 50, 10, 5 and 1 µM in duplicates. The viability of the worms was evaluated microscopically after 24, 48 and 72 h of continuous drug exposure using the same phenotypic screening method as described before. […]

adult S. mansoni = assay: In vitro drug sensitivity assay on adult S. mansoni (microscopic viability scoring); format: cell-based, Schistosoma mansoni; details: for mean drug effect at 10 µM on adult S. mansoni, 24 h / mean drug effect at 10 µM on adult S. mansoni, 48 h / mean drug effect at 10 µM on adult S. mansoni, 72 h: in percentage of DMSO control; for EC50: 37 °C, 5% CO2; for Fold activity of niridazole: potency on adult S. mansoni relative to niridazole, EC50 at 72 h; for drug effect at 50 µM on adult S. mansoni: 72 h incubation, normalized to DMSO control, active if ≥60%
Method: Figure 3 In vitro activity at 50 µM of the 12 compounds on adult S. mansoni. Adult schistosomes were incubated in culture media for 72 h at 37 °C and 5% CO2 with either compound (50 µM) or a DMSO (0.5%) control. The viability of the worms was microscopically evaluated and scored (0—3, in 0.5 steps) every 24 h. Results are from two independent experiments, each performed in duplicate. Drug activities were normalized to the DMSO controls. Data represent mean ± SD in percentage of DMSO control. […]
In vitro evaluation on adult S. mansoni
After a week for acclimatization to the new environment with controlled conditions (temperature: 22 °C ± 2 °C, humidity: 50 % ± 10 %, 12:12 h light/dark photocycle), four-week-old female NMRI mice (Charles River, Sulzfeld, Germany) were subcutaneously infected with approximately 100 cercariae to establish the S. mansoni infection. In the S. mansoni infected mice the worms were allowed to develop for 7 weeks into the adult stage, before they were extracted from the mesenteric veins of the euthanized mice. The adult worms were placed into RPMI 1640 (Gibco, Waltham MA, USA) medium supplemented with 1 % penicillin/streptomycin mixture and 5 % iFCS at 37 °C and 5 % CO 2. The drug sensitivity assay was set up in a 24-well plate with two wells containing each two pairs of S. mansoni worms per compound and concentration.
The final volume per well was 2 mL, containing the culture medium and the corresponding amount of drug dissolved in DMSO. The maximum concentration tested was 50 µM, corresponding to 0.5 % DMSO, to which all the other wells were adapted […]
to, so that all test concentrations contained always the same amount of DMSO.
Additionally, 2 wells with negative controls containing only DMSO and the culture medium were included. After an incubation period of 72 h at 37 °C and 5 % CO 2, the worms were microscopically evaluated. The drug effect was determined 24, 48 and 72 h post-exposure based on the phenotype of the adult worms, using a viability scale ranging from three referring to viable, motile worms with no change in their tegument to zero standing for the death of the worms.
All described in vitro studies with mice involved, were conducted at the Swiss Tropical and Public Health Institute, first in Basel, later in Allschwil, and had the approval by the corresponding veterinary authorities of the Canton Basel-Stadt (permit no. 2070)

[1] = system: S. mansoni newly transformed schistosomula (NTS); assay: In vitro evaluation on newly transformed schistosomula (NTS); format: cell-based, Schistosoma mansoni; details: for EC50: 72 h incubation, 37 °C, 5% CO2; for drug effect at 50 µM on S. mansoni NTS: highest tested concentration 50 µM
Method: 2. Experimental section for biological experiments
Stock solutions of the test compounds
Stock solution of a concentration of 10 mM in pure DMSO (Sigma-Aldrich, Switzerland) were prepared of the 12 compounds, these stock solutions were used for all in vitro evaluations from activity tests in S. mansoni to the cytotoxic determinations in HUH7 hepatocyte-derived carcinoma cells, and in SH-SY5Y neuroblastoma cells.
The solutions were thoroughly vortexed and sonicated to enable a good dissolution of the compounds and homogenous stock solutions.
2.1 In vitro evaluations in S. mansoni
In vitro evaluation on newly transformed schistosomula (NTS)
To obtain newly transformed schistosomula (NTS) the lifecycle of S. mansoni (strain originates from West Africa, Liberia) is maintained at the Swiss Tropical and Public Health Institute (Swiss TPH). As previously described, cercariae are collected from infected Biomphalaria glabrata snails and then mechanically transformed into NTS. 8 After HBSS (Gibco, Waltham MA, USA) washing to get rid of the detached tails, the NTS were kept overnight (min. 12 h, max. 24 h) in culture medium at 37 °C and 5 % CO2 to complete their transformation process, before the drug sensitivity assay was started. The drug assays were performed in the same culture medium consisting of medium M199 (Gibco, Waltham MA, USA) supplemented with 5 % v/v inactivated fetal calf serum (iFCS; Bioconcept AG, Allschwil, Switzerland), 1% antibiotics mixture developed by Mäser et al., 9 and 1 % penicillin 10,000 U/mL, and streptomycin 10 mg/mL solution (Sigma-Aldrich, Buchs, Switzerland). The assay was performed in a 96-well plate, with 30−40 NTS per well in a final volume of 250 μL. NTS incubated in culture medium containing 0.5 % DMSO but no drug served as negative controls.
Microscopic evaluation was performed after 24, 48 and 72 h of incubation of the parasites at 37 °C and 5 % CO 2. Their overall viability was scored from 0 (death) to 3 (full viability) by a phenotypic screening method based on their motility, morphology, […]
and granularity. […]

[2] = Stability in DMSO-d6 monitored by 1H NMR; format: physicochemical; details: room temperature, 0, 6, 24, 30 and 48 h
Method: Stability is a key factor that needs to be investigated in medicinal chemistry, particularly with metal complexes.^[ [44] ^] We randomly chose four niridazole derivatives that we dissolved in DMSO‐d 6 (A3, B1, C2, and D1). We then monitored by ^1H NMR spectroscopy any change in the spectra after 0, 6, 24, 30, and 48 h at room temperature. No shifted peaks or new peaks were found for all the tested compounds over 2 days, showing that they are stable in DMSO‐d 6. The NMR spectra of these studies can be found in the Supporting Information (Figure S32–S35).
Figure S31 DEPT spectrum of C2
1H NMR spectra for stability
Preparation of the control samples for 1H NMR analysis: Compounds B1, D1, A3 and
C2 were dissolved in DMSO- d6. Compound A2 was dissolved in DMSO- d6 with D2O
(4:1, v/v). NMR spectra were recorded in deuterated solvents on Bruker Avance-400
in the room temperature for 0, 6, 24, 30 and 48 hours or 0, 3, 6 and 24 hours. […]

[3] = 24 h drug exposure, read-out: EC50 on adult S. mansoni, 24 h
[4] = 48 h drug exposure, read-out: EC50 on adult S. mansoni, 48 h
[5] = 72 h drug exposure, read-out: EC50 on adult S. mansoni, 72 h
[6] = Schistosoma mansoni, 72 h, 72 h drug exposure, read-out: EC50 on adult S. mansoni, 72 h

Row | Structure (SMILES) | EC50 (juvenile S. mansoni) | mean drug effect at 10 µM on adult S. mansoni, 24 h (adult S. mansoni; 24 h) | mean drug effect at 10 µM on adult S. mansoni, 48 h (adult S. mansoni; 48 h) | EC50 (adult S. mansoni; [3]) | EC50 (adult S. mansoni; [4]) | EC50 (adult S. mansoni; [5]) | Fold activity of niridazole (adult S. mansoni) | EC50 [1] | drug effect at 50 µM on adult S. mansoni (adult S. mansoni) | EC50 (adult S. mansoni; [6]) | EC50 ([1]; Schistosoma mansoni) | drug effect at 50 µM on S. mansoni NTS [1] | stability in DMSO-d6 (1H NMR) [2] | mean drug effect at 10 µM on adult S. mansoni, 72 h (adult S. mansoni; 72 h) | EC50 (juvenile S. mansoni; Schistosoma mansoni) | EC50 (adult S. mansoni; Schistosoma mansoni, 24 h, 24 h drug exposure, read-out: EC50 on adult S. mansoni, 24 h) | EC50 (adult S. mansoni; Schistosoma mansoni, 48 h, 48 h drug exposure, read-out: EC50 on adult S. mansoni, 48 h)
1 | C=CC([c-]1cccc1)N1CCN(c2ncc([N+](=O)[O-])s2)C1=O.[Fe+2].c1cc[cH-]c1 (racemic) [Compound A5] | 12.2 µM | 36.19% | 57.59% | > 50 µM | 5.3 µM | 1.5 µM | 3.8 | > 50 µM | – | – | – | – | – | – | – | – | –
2 | Nc1ncc([N+](=O)[O-])s1 [Compound 2] | – | – | – | – | – | – | – | – | No drug effect | > 50 µM | > 50 µM | No drug effect | – | – | – | – | –
3 | O=C1N(C[c-]2cccc2)CCN1c1ncc([N+](=O)[O-])s1.[Fe+2].c1cc[cH-]c1 [Compound A3] | 5.7 µM | 30.75% | 44.28% | 50.5 µM | 9.7 µM | 3.5 µM | 1.6 | > 50 µM | less active than niridazole | – | – | – | stable | 66.09% | – | – | –
4 | O=C1N(CCCCCC[c-]2cccc2)CCN1c1ncc([N+](=O)[O-])s1.[Fe+2].c1cc[cH-]c1 [Compound A4] | – | – | – | – | – | > 50 µM | – | > 50 µM | No drug effect | – | – | No drug effect | – | – | – | – | –
5 | O=C(Nc1ncc([N+](=O)[O-])s1)[c-]1cccc1.[Ru+2].c1cc[cH-]c1 [Compound B1] | > 50 µM | 45.53% | 44.35% | – | – | 6.9 µM | – | > 50 µM | less active than niridazole | – | – | – | stable | 57.20% | – | – | –
6 | O=C1N(C[c-]2cccc2)CCN1c1ncc([N+](=O)[O-])s1.[Ru+2].c1cc[cH-]c1 [Compound B2] | 8 µM | 31.28% | 44.99% | 38.1 µM | – | 3.2 µM | 1.8 | > 50 µM | less active than niridazole | – | – | – | – | 65.57% | – | – | –
7 | O=C1N(Cc2ccccc2)CCN1c1ncc([N+](=O)[O-])s1 [Compound C2] | – | – | – | – | – | – | – | – | No drug effect | > 50 µM | > 50 µM | No drug effect | stable | – | – | – | –
8 | O=C(Nc1ncc([N+](=O)[O-])s1)C12CC3CC(CC(C3)C1)C2 [Compound D1] | – | 55.18% | 66.75% | 9.8 µM | – | – | 1.5 | – | – | 3.7 µM | 7.9 µM | – | stable | 65.76% | 29.2 µM | < 10 µM | 4.2 µM
